Test results published in patent publication US20050069513A1, “Amphiphilic compounds for pharmaceutical or cosmetic use” (Physica S.A.R.L., priority 2001, published 2005).

Assay: Formation of ion pair in aqueous phase: solubility / appearance of solutions
Type: physicochemical
Settings: acylamino acid dispersed in aqueous phase, milky white appearance
Text: Two aqueous solutions are used. The first contains calcitonin. Due to the fact that the calcitonin is hydrophilic, the solution is clear. […] This second solution has a milky white appearance.
The obtained complex, calcitonin oleyl methyl glycine, is therefore amphiphilic.
Two aqueous solutions are used. The first contains lidocaine dispersed in the aqueous solution. […] This second solution has a milky white appearance.
The obtained complex, lidocaine oleyl glycine, is therefore amphiphilic.
A solution of NaOH in the quantity required for causing precipitation of all of the polymyxin E by deplacement of the sulphate salt is added to a solution of polymyxin E sulphate. Polymyxin E, also known as colistin, thereby goes back to its non-salified, basic structure. The resulting solution, solution B, is thus an aqueous phase with a precipitate of polymyxin E.
The polymyxin is thus resolubilized in the form of an amphiphilic complex, polymyxin E linoleyl glycine.

| solubility in water | Structure (SMILES) |
| --- | --- |
| only slightly soluble in water | CCCCC/C=C\C/C=C\CCCCCCCCNCC(=O)O [linoleyl glycine] |
| only slightly soluble in water | CCCCCCCC/C=C\CCCCCCCCNCC(=O)O [oleyl glycine] |
| only slightly soluble in water | CCCCCCCC/C=C\CCCCCCCCN(C)CC(=O)O [oleyl methyl glycine] |
